Results from PMC10746543, “Design principles for cyclin K molecular glue degraders” (Nature Chemical Biology, 2023).
Several values for one entry are separate records, joined by “and”; a condition that tells them apart may be missing. Equal entries are not always repeated. Where two headings read alike, the source gives them in different places.

Experiments:
CDK12–cyclin K and DDB1 = target: T1, CDK12–cyclin K and DDB1 (Homo sapiens, UniProt Q16531+Q9NYV4, K965R); experiment: TR-FRET ternary complex formation assay (compound titration); format: binding
T1 construct: His6–CDK12 (a.a. 713–1,052); full-length or beta-propeller B domain deletion (ΔBPB: a.a. 396–705 deleted) constructs of His6–DDB1ΔBPB, StrepII–Avi–DDB1, or His6–Spy–DDB1; made in house; host or cells: Trichoplusia ni High Five insect cells (baculovirus)
Outline: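 Read-out used a 70 μs delay to cut background fluorescence; TR-FRET signal taken as the 520 nm/490 nm emission ratio.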

[1] = tested on: cyclin K–eGFP degradation reporter; experiment: Cyclin K reporter stability analysis (dual-color cyclin K–eGFP reporter); format: cell-based, human
Outline: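 Readout was the eGFP-to-mCherry geometric-mean ratio by flow cytometry, normalized to three DMSO controls, after 5 h drug exposure. Cells used were HEK293T–Cas9 expressing the dual-colour cyclin K–eGFP degradation reporter.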

HEK293T cells = experiment: Drug sensitivity assay (CellTiter-Glo viability) with or without MLN4924 pretreatment; format: cell-based, human; settings: for EC50: Homo sapiens, HEK-293T; for Toxicity rescue: MLN4924-mediated cytotoxicity rescue, 10 µM used where n.d.
Outline: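 HEK293T–Cas9 cells at 0.15 × 10^6 ml^−1 were treated with DMSO or 100 nM MLN4924 before plating. Test drugs were added 2 h later and exposure lasted 3 days. Viability was read by CellTiter-Glo luminescence and expressed relative to DMSO controls.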

[2] = sheet MOESM7, read-out: log TR-FRET EC50 (converted)
[3] = Supplementary Table 2, HEK293T viability, 72 h, compound alone, read-out: Cellular assays EC50

T1 sequence (Q9NYV4 713-1052 K965R): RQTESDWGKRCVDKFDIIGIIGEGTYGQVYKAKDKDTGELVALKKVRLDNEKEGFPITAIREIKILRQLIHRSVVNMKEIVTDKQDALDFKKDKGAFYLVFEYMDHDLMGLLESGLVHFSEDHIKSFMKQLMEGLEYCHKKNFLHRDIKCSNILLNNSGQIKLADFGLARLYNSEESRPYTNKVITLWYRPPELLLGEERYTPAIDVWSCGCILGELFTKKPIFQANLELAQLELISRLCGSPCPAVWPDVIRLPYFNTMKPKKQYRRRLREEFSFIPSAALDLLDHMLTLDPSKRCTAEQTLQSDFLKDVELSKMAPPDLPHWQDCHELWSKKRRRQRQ
T1 sequence (O75909 1-267 partner): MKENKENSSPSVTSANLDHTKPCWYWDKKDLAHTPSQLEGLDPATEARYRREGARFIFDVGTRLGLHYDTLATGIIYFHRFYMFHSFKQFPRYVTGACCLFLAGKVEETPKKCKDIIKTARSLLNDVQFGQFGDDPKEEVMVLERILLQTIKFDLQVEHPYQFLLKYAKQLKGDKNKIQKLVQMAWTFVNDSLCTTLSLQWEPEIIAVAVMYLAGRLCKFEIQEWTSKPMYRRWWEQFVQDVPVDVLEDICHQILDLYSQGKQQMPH
T1 sequence (Q16531 whole entry): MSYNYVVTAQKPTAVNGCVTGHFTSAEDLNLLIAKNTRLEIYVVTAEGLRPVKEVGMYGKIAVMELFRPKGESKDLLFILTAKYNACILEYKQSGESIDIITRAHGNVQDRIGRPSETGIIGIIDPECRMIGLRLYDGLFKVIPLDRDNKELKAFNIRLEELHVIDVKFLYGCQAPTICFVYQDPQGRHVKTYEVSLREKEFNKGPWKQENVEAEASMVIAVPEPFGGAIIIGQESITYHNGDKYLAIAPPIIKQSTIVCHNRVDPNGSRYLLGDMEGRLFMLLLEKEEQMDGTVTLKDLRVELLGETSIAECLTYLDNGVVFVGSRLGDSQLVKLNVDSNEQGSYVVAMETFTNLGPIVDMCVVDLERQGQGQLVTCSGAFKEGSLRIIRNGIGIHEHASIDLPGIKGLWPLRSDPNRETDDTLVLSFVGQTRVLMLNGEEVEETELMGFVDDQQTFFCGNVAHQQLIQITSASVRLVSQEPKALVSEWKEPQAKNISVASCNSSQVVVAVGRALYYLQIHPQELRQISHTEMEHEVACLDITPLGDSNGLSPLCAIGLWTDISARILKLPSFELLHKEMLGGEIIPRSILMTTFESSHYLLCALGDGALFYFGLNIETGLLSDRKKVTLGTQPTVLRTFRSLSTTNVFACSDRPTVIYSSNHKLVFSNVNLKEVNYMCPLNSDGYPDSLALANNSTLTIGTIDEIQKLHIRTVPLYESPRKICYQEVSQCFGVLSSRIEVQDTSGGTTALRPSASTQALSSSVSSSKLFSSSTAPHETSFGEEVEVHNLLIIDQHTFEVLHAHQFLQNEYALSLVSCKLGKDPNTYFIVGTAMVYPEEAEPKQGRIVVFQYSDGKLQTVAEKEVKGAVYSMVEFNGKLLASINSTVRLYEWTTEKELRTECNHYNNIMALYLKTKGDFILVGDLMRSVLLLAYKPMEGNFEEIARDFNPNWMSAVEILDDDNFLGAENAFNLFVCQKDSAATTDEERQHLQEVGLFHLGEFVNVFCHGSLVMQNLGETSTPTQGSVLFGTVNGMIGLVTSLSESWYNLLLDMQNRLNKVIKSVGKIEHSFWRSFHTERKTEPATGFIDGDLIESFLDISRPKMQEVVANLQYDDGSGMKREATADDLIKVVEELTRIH

## CC(C)n1cnc2c(NCc3ccc(-c4ccccn4)cc3)nc(N[C@@H](Cc3ccc(OCc4ccccc4)cc3)c3nnc[nH]3)nc21 [DS58]
CDK12–cyclin K and DDB1; compound concentration 4.68 nM, raw titration data
  TR-FRET signal at compound concentration 4.68 nM: 0.2093 and 0.2396
CDK12–cyclin K and DDB1; compound concentration 21.6 nM, raw titration data
  TR-FRET signal at compound concentration 21.6 nM: 0.2345 and 0.3021
CDK12–cyclin K and DDB1; compound concentration 36 nM, raw titration data
  TR-FRET signal at compound concentration 36 nM: 0.286 and 0.3105
CDK12–cyclin K and DDB1; compound concentration 79.2001 nM, raw titration data
  TR-FRET signal at compound concentration 79.2001 nM: 0.3776 and 0.414
CDK12–cyclin K and DDB1; compound concentration 158.4 nM, raw titration data
  TR-FRET signal at compound concentration 158.4 nM: 0.5529 and 0.574
CDK12–cyclin K and DDB1; compound concentration 309.6 nM, raw titration data
  TR-FRET signal at compound concentration 309.6 nM: 0.8665 and 0.8767
CDK12–cyclin K and DDB1; compound concentration 626.401 nM, raw titration data
  TR-FRET signal at compound concentration 626.401 nM: 1.353 and 1.369
CDK12–cyclin K and DDB1; compound concentration 1252.8 nM, raw titration data
  TR-FRET signal at compound concentration 1252.8 nM: 2.037 and 2.014
CDK12–cyclin K and DDB1; compound concentration 2448 nM, raw titration data
  TR-FRET signal at compound concentration 2448 nM: 2.68 and 2.699
CDK12–cyclin K and DDB1; compound concentration 9936.01 nM, raw titration data
  TR-FRET signal at compound concentration 9936.01 nM: 3.329 and 3.445
CDK12–cyclin K and DDB1; compound concentration 20016 nM, raw titration data
  TR-FRET signal at compound concentration 20016 nM: 3.076 and 3.1
CDK12–cyclin K and DDB1; in vitro complex formation, 50 nM CDK12–cyclin K, 100 nM DDB1, text and figures, read-out: TR-FRET EC50
  EC50: 948 ± 61 nM
CDK12–cyclin K and DDB1; [2]
  EC50: 948 nM
CDK12–cyclin K and DDB1; source data sheet correlations, read-out: TR-FRET EC50
  EC50: 948 nM
[1]; source data sheet correlations, read-out: DC50
  DC50: 2020 nM
HEK293T cells; Supplementary Fig. 5, HEK293T, CellTiter Glo, 72h, read-out: Viability EC50, no MLN4924
  EC50: 1750 nM
HEK293T cells; [3]
  EC50: 1780 nM
HEK293T cells; Supplementary Table 2
  Toxicity rescue: 461%

## CC[C@H](CO)Nc1nc(NCCCC2CCCC2)c2ncn(C(C)C)c2n1 [DS33]
CDK12–cyclin K and DDB1; Supplementary Table 2, read-out: TR-FRET EC50 TR-FRET
  EC50: 1270 nM
CDK12–cyclin K and DDB1; compound concentration 4.68 nM
  TR-FRET signal, individual replicate: 0.2064 and 0.239
CDK12–cyclin K and DDB1; compound concentration 21.6 nM
  TR-FRET signal, individual replicate: 0.2251 and 0.2479
CDK12–cyclin K and DDB1; compound concentration 36 nM
  TR-FRET signal, individual replicate: 0.2332 and 0.272
CDK12–cyclin K and DDB1; compound concentration 79.2001 nM
  TR-FRET signal, individual replicate: 0.2704 and 0.303
CDK12–cyclin K and DDB1; compound concentration 158.4 nM
  TR-FRET signal, individual replicate: 0.3276 and 0.3592
CDK12–cyclin K and DDB1; compound concentration 309.6 nM
  TR-FRET signal, individual replicate: 0.4277 and 0.464
CDK12–cyclin K and DDB1; compound concentration 626.401 nM
  TR-FRET signal, individual replicate: 0.5723 and 0.6562
CDK12–cyclin K and DDB1; compound concentration 1252.8 nM
  TR-FRET signal, individual replicate: 0.7875 and 0.9047
CDK12–cyclin K and DDB1; compound concentration 2448 nM
  TR-FRET signal, individual replicate: 1.007 and 1.15
CDK12–cyclin K and DDB1; compound concentration 9936.01 nM
  TR-FRET signal, individual replicate: 1.305 and 1.477
CDK12–cyclin K and DDB1; compound concentration 20016 nM
  TR-FRET signal, individual replicate: 1.367 and 1.47
CDK12–cyclin K and DDB1; [2]
  EC50: 1270 nM
[1]; Supplementary Table 2, HEK293T cycK-eGFP reporter, 5 h, read-out: Cellular assays DC50
  DC50: > 10000 nM
HEK293T cells; [3]
  EC50: > 10000 nM
HEK293T cells; Supplementary Table 2
  Toxicity rescue: 0%
